Laboratory results published in US20250387400A1, “TYK2 INHIBITORS” (BIOGEN MA INC., priority 2022, published 2025).
pIC50: −log10 of the molar value. Like-named read-outs stand apart in the source and are kept apart here.

Tests used:
Format in all cases: biochemical
[1] = biological target: T1, catalytic kinase (JH1) domain of human TYK2 (Homo sapiens, UniProt P29597); test: ADP-Glo kinase assay, TYK2 kinase domain; conditions: for IC50: 2 nM recombinant TYK2 kinase domain, 50 μM JAK3-974 peptide, 10 μM ATP, 100 minutes, read-out: TYK2 biochem IC50 (nM) Mean
T1 construct: recombinantly generated catalytic kinase (also known as JH1) domain of human JAK1, JAK2, JAK3 and TYK2
T1 sequence (P29597 897-1176 limits assumed): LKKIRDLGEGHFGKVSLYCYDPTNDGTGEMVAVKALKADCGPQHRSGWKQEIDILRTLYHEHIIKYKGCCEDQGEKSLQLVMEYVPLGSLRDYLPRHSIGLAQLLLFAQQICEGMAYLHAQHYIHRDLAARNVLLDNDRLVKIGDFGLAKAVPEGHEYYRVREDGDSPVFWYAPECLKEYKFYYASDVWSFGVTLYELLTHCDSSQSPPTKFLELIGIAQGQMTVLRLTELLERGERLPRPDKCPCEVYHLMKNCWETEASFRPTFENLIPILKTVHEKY
Method: (§1) As summarized in Table 3 below, compounds of the disclosure were assessed for their ability to inhibit TYK2, JAK1, JAK2, and JAK3 activity.
(§2) The kinase activity of recombinantly generated catalytic kinase (also known as JH1) domain of human JAK1, JAK2, JAK3 and TYK2 were evaluated in a plate-based assay using the ADP-Glo™ Kinase Assay platform. […] The reactions proceed for 100 minutes and the catalytic activity is quantified by first depleting the unused ATP, converting the hydrolyzed ADP into ATP to generate luminescence in a luciferase reaction; which is the basis of the ADP-Glo platform. Compounds are tested at either 10 μM or 1 μM top concentration, 11 points of 3-fold dilution. The data is normalized and the percent activity versus log concentration of compound is fitted with a 4-parameter logistic model to generate a curve and an IC50 value.

[2] = biological target: T2, catalytic kinase (JH1) domain of human JAK3 (Homo sapiens, UniProt P52333); test: ADP-Glo kinase assay, JAK3 kinase domain; conditions: for IC50: 0.3 nM recombinant JAK3 kinase domain, 50 μM JAK3-974 peptide, 4 μM ATP, 100 minutes, read-out: JAK3 biochem IC50 (nM) Mean
T2 construct: Catalytic activities of recombinant JAK2, JAK3 and TYK2 kinase domain
T2 sequence (P52333 822-1111 limits assumed): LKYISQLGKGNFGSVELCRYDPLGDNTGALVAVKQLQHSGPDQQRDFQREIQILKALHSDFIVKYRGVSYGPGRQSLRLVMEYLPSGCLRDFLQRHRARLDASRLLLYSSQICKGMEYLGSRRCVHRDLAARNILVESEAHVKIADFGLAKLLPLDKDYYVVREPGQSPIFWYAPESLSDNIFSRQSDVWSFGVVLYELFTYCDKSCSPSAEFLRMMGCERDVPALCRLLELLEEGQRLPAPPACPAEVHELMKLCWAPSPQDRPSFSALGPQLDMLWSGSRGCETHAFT
Method: as §1, §2

[3] = biological target: T3, catalytic kinase (JH1) domain of human JAK1 (Homo sapiens, UniProt P23458); test: ADP-Glo kinase assay, JAK1 kinase domain; conditions: for IC50: 4 nM recombinant JAK1 kinase domain, 50 μM JAK3-342 peptide, 35 μM ATP, 100 minutes, read-out: JAK1 biochem IC50 (nM) Mean
T3 construct: 4 nM of recombinant JAK1 kinase domain is used to phosphorylate
T3 sequence (P23458 875-1153 limits assumed): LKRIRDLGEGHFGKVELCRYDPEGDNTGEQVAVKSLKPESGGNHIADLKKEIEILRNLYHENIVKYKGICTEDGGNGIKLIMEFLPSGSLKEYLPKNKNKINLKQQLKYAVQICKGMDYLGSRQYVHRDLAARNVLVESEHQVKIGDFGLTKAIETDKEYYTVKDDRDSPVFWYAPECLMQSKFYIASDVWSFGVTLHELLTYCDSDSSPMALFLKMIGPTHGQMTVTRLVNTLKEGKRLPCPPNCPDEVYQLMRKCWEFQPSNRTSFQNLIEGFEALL
Method: as §1, §2

[4] = biological target: T4, catalytic kinase (JH1) domain of human JAK2 (Homo sapiens, UniProt O60674); test: ADP-Glo kinase assay, JAK2 kinase domain; conditions: for IC50: 0.2 nM recombinant JAK2 kinase domain, 50 μM JAK3-974 peptide, 15 μM ATP, 100 minutes, read-out: JAK2 biochem IC50 (nM) Mean
T4 construct: Catalytic activities of recombinant JAK2, JAK3 and TYK2 kinase domain
T4 sequence (O60674 849-1124 limits assumed): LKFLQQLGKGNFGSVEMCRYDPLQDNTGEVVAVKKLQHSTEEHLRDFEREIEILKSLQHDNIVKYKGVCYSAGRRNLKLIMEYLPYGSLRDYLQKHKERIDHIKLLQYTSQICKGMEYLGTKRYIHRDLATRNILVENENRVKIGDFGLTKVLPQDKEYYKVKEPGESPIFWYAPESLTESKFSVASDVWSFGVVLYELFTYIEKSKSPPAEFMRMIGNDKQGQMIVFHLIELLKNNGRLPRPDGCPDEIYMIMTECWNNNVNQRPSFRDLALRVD
Method: as §1, §2

| SMILES | pIC50 [1] | pIC50 [2] | pIC50 [3] | pIC50 [4] | IC50 [1] [nM] | IC50 [2] [nM] | IC50 [3] [nM] | IC50 [4] [nM] |
| --- | --- | --- | --- | --- | --- | --- | --- | --- |
| COc1cc(-c2cc3c(N4CC5CCC(C4)N5[C@H]4C[C@H](C#N)C4)ccnc3[nH]2)ccn1 [Example 15, (1R,3r)-3-(3-(2-(2-methoxypyridin-4-yl)-1H-pyrrolo[2,3-b]pyridin-4-yl)-3,8-diazabicyclo[3.2.1]octan-8-yl)cyclobutane-1-carbonitrile] | 8.67 | 7.13 | 7.86 | 7.82 | – | – | – | – |
| Cn1cc(-c2cc3c(N4CC5CCC(C4)N5[C@H]4C[C@@H](C#N)C4)ccnc3[nH]2)cn1 [Example 16, (1S,3s)-3-(3-(2-(1-methyl-1H-pyrazol-4-yl)-1H-pyrrolo[2,3-b]pyridin-4-yl)-3,8-diazabicyclo[3.2.1]octan-8-yl)cyclobutane-1-carbonitrile] | – | – | – | – | 17.5 | 550 | 315 | 117 |
| Cn1cc(-c2cc3c(N4CC5CCC(C4)N5C4CC(C#N)C4)ccnc3[nH]2)cn1 [Example 17, (1R,3r)-3-(3-(2-(1-methyl-1H-pyrazol-4-yl)-1H-pyrrolo[2,3-b]pyridin-4-yl)-3,8-diazabicyclo[3.2.1]octan-8-yl)cyclobutane-1-carbonitrile] | – | – | – | – | 2.8 | 67.7 | 36.7 | 20 |
| COc1cc(-c2cc3c(N4CC5CCC(C4)N5C4COC4)ccnc3[nH]2)ccn1 [Example 18, 2-(2-methoxypyridin-4-yl)-4-(8-(oxetan-3-yl)-3,8-diazabicyclo[3.2.1]octan-3-yl)-1H-pyrrolo[2,3-b]pyridine] | – | – | – | – | 30.5 | > 1000 | 49.5 | 97 |
| COc1cc(-c2cc3c(N4CC5CCC(C4)N5C4CC(C(F)F)C4)ccnc3[nH]2)ccn1 (stereo not drawn) [Example 19, 4-(8-(3-(difluoromethyl)cyclobutyl)-3,8-diazabicyclo[3.2.1]octan-3-yl)-2-(2-methoxypyridin-4-yl)-1H-pyrrolo[2,3-b]pyridine] | – | – | – | – | 40.5 | 785 | 68 | 115 |
| Cn1cc(-c2cc3c(N4CC5CCC(C4)N5C4(CC#N)COC4)ccnn3c2)cn1 [Example 20, 2-(3-(3-(6-(1-methyl-1H-pyrazol-4-yl)pyrrolo[1,2-b]pyridazin-4-yl)-3,8-diazabicyclo[3.2.1]octan-8-yl)oxetan-3-yl)acetonitrile] | – | – | – | – | 40.5 | 1400 | 520 | 265 |
| Cn1cc(-c2cc3c(N4CC5CCC(C4)N5C4CC(O)(C(F)(F)F)C4)ccnn3c2)cn1 (stereo not drawn) [Example 22, 3-(3-(6-(1-methyl-1H-pyrazol-4-yl)pyrrolo[1,2-b]pyridazin-4-yl)-3,8-diazabicyclo[3.2.1]octan-8-yl)-1-(trifluoromethyl)cyclobutan-1-ol] | – | – | – | – | 305 | > 10000 | 5200 | 1200 |
| Cn1cc(-c2cc3c(N4CC5CCC(C4)N5C4COC4)ccnn3c2)cn1 [Example 23, 6-(1-methyl-1H-pyrazol-4-yl)-4-(8-(oxetan-3-y1)-3,8-diazabicyclo[3.2.1]octan-3-yl)pyrrolo[1,2-b]pyridazine] | – | – | – | – | 14.5 | 2150 | 310 | 185 |
| COC1CC(N2C3CCC2CN(c2ccnn4cc(-c5cnn(C)c5)cc24)C3)C1 (stereo not drawn) [Example 24, 4-(8-(3-methoxycyclobutyl)-3,8-diazabicyclo[3.2.1]octan-3-yl)-6-(1-methyl-1H-pyrazol-4-yl)pyrrolo[1,2-b]pyridazine] | – | – | – | – | 19 | 4250 | 230 | 380 |
| Cn1cc(-c2cc3c(N4CC5CCC(C4)N5C4CC(O)C4)ccnn3c2)cn1 (stereo not drawn) [Example 25, 3-(3-(6-(1-methyl-1H-pyrazol-4-yl)pyrrolo[1,2-b]pyridazin-4-yl)-3,8-diazabicyclo[3.2.1]octan-8-yl)cyclobutan-1-ol] | – | – | – | – | 435 | > 10000 | 6250 | 5050 |
| Cn1cc(-c2cc3c(N4CC5CCC(C4)N5C4CCC4)ccnn3c2)cn1 [Example 26, 4-(8-cyclobutyl-3,8-diazabicyclo[3.2.1]octan-3-y1)-6-(1-methyl-1H-pyrazol-4-yl)pyrrolo[1,2-b]pyridazine] | 6.71 | < 5.00 | 5.21 | 5.48 | – | – | – | – |
| CO[C@H]1C[C@H](N2C3CCC2CN(c2ccnn4cc(-c5cnn(C)c5)cc24)C3)C1 [Example 29, 4-(8-((1r,3R)-3-methoxycyclobutyl)-3,8-diazabicyclo[3.2.1]octan-3-yl)-6-(1-methyl-1H-pyrazol-4-yl)pyrrolo[1,2-b]pyridazine] | – | – | – | – | 187 | > 10000 | 6500 | 3600 |
| CO[C@H]1C[C@@H](N2C3CCC2CN(c2ccnn4cc(-c5cnn(C)c5)cc24)C3)C1 [Example 30, 4-(8-((1s,3S)-3-methoxycyclobutyl)-3,8-diazabicyclo[3.2.1]octan-3-yl)-6-(1-methyl-1H-pyrazol-4-yl)pyrrolo[1,2-b]pyridazine] | – | – | – | – | 367 | > 10000 | > 10000 | 4670 |
| Cn1cc(-c2cc3c(N4CC5CCC(C4)N5[C@H]4C[C@H](O)C4)ccnn3c2)cn1 [Example 31, (1R,3r)-3-(3-(6-(1-methyl-1H-pyrazol-4-yl)pyrrolo[1,2-b]pyridazin-4-yl)-3,8-diazabicyclo[3.2.1]octan-8-yl)cyclobutan-1-ol] | – | – | – | – | 205 | > 10000 | 9200 | 4000 |
| Cn1cc(-c2cc3c(N4CC5CCC(C4)N5[C@H]4C[C@@H](O)C4)ccnn3c2)cn1 [Example 32, (1S,3s)-3-(3-(6-(1-methyl-1H-pyrazol-4-yl)pyrrolo[1,2-b]pyridazin-4-yl)-3,8-diazabicyclo[3.2.1]octan-8-yl)cyclobutan-1-ol] | – | – | – | – | 460 | > 10000 | > 10000 | 6300 |
| Cn1cc(-c2cc3c(N4CC5CCC(C4)N5C4CC5(COC5)C4)ccnn3c2)cn1 [Example 33, 4-(8-(2-oxaspiro[3.3]heptan-6-yl)-3,8-diazabicyclo[3.2.1]octan-3-yl)-6-(1-methyl-1H-pyrazol-4-yl)pyrrolo[1,2-b]pyridazine] | 7.37 | 5.21 | 5.87 | 6.13 | – | – | – | – |
| Cn1cc(-c2cc3c(N4CC5CCC(C4)N5[C@H]4C[C@](C)(C#N)C4)ccnn3c2)cn1 [Example 34, (1r,3r)-1-methyl-3-(3-(6-(1-methyl-1H-pyrazol-4-yl)pyrrolo[1,2-b]pyridazin-4-yl)-3,8-diazabicyclo[3.2.1]octan-8-yl)cyclobutane-1-carbonitrile] | – | – | – | – | 23 | 2550 | 720 | 295 |
| Cn1cc(-c2cc3c(N4CC5CCC(C4)N5[C@H]4C[C@@](C)(C#N)C4)ccnn3c2)cn1 [Example 35, (1s,3s)-1-methyl-3-(3-(6-(1-methyl-1H-pyrazol-4-yl)pyrrolo[1,2-b]pyridazin-4-yl)-3,8-diazabicyclo[3.2.1]octan-8-yl)cyclobutane-1-carbonitrile] | – | – | – | – | 4.7 | 190 | 89 | 31.5 |
| Cn1cc(-c2cc3c(N4CC5CCC(C4)N5[C@H]4C[C@@H](S(C)(=O)=O)C4)ccnn3c2)cn1 [Example 36, 6-(1-methyl-1H-pyrazol-4-yl)-4-(8-((1s,3s)-3-(methylsulfonyl)cyclobutyl)-3,8-diazabicyclo[3.2.1]octan-3-yl)pyrrolo[1,2-b]pyridazine] | 7.30 | 5.77 | 6.36 | 6.62 | – | – | – | – |
| Cn1cc(-c2cc3c(N4CC5CCC(C4)N5[C@H]4C[C@H](S(C)(=O)=O)C4)ccnn3c2)cn1 [Example 37, 6-(1-methyl-1H-pyrazol-4-yl)-4-(8-((1r,3r)-3-(methylsulfonyl)cyclobutyl)-3,8-diazabicyclo[3.2.1]octan-3-yl)pyrrolo[1,2-b]pyridazine] | 6.51 | < 5.00 | 5.37 | 5.84 | – | – | – | – |
| COCC[C@]1(C#N)C[C@H](N2C3CCC2CN(c2ccnn4cc(-c5cnn(C)c5)cc24)C3)C1 [Example 38, (1r,3r)-1-(2-methoxyethyl)-3-(3-(6-(1-methyl-1H-pyrazol-4-yl)pyrrolo[1,2-b]pyridazin-4-yl)-3,8-diazabicyclo[3.2.1]octan-8-yl)cyclobutane-1-carbonitrile] | – | – | – | – | 185 | 7300 | 1400 | 1100 |
